In paper PMC5482315 (Biochimica et Biophysica Acta, 2017):
pKd: −log10 of the molar value. Read-outs that look alike come from different tables or passages of the source.

What was measured:
[1] = molecular target: T1, VanSA (Enterococcus faecium, UniProt Q06240); assay: VanSA autophosphorylation activity assay (Universal Kinase Activity Kit); format: biochemical, Enterococcus faecium BM4147; conditions: n = 3, result in words; for activity of VanSA (autophosphorylation): 5-fold molar equivalent of ligand, 20 min pre-incubation, 40 min with ATP, 25 mM HEPES pH 8.0, OD620 malachite green; for phosphorylation states of VanSA (activity profile): activity profile over 40 min
Description: Assays were conducted as per the instructions provided in the R&D Systems Universal Kinase Activity Kit (Catalogue # EA004, R&D), changing the pH to 8.0; therefore all assays were conducted in 25 mM HEPES pH 8.0, 150 mM NaCl, 10 mM MgCl2, and 10 mM CaCl2. Compatibility checks for the activity of CD39L2 were made in the new conditions. A phosphate standard curve in the new assay conditions was used to determine the conversion factor (CF) for CD39L2 by calculating the slope of OD620 × phosphate input (KH2PO4). This CF was used in later calculations to determine the amount of PO4^2 − produced in later experiments. For ligand screens, VanSA (0.2 μg) was incubated in the absence and presence of 5-fold molar equivalent of ligands for 20 min prior to the initiation of autophosphorylation by the addition of ATP; after which autophosphorylation was allowed to proceed for 40 min before reactions were stopped by the addition of 30 μl Malachite Green Reagent A (ammonium molybdate in 3 M sulphuric acid) at t = 60. 100 μl distilled H2O was added to each well, followed by 30 μl of Malachite Reagent B (malachite green oxalate and polyvinyl alcohol) and the colour allowed to develop for 20 min before determining the optical density at 620 nm.

[2] = molecular target: T1, VanSA; assay: thermal denaturation of VanSA by far-UV CD (melting temperature); format: binding, Enterococcus faecium BM4147; conditions: 5-fold molar equivalent of ligand; for Melting temperature (Tm) of VanSA in the presence of screened ligands: monitored at 222 nm, 20–95 °C in 5 °C increments, 10 mM Tris–HCl pH 8.0 ligand stocks, 30 min at 20 °C, VanSA alone 44 ± 0.71
Description: (§1) Ligand-containing samples were performed by addition of 5-fold molar equivalent of ligand stocks in 10 mM Tris–HCl pH 8.0 (control incubated with equivalent volume of 10 mM Tris–HCl pH 8.0). All samples were incubated at 20 °C for 30 min prior to data collection. All data was analysed using CDApps where the mean residue weight of VanSA was taken to be 113. Unless otherwise stated, all spectra presented are difference spectra where all relevant background buffers, ligands etc. have been subtracted. Data acquired when the HT of the detector (PMT) was equal to or > 600 V were excluded from the analyses. Far-UV measurements (180–260 nm) were commonly collected using 0.5 mg/ml of VanSA with bandwidth of 1 nm and 1 s integration time. Data presented in molar extinction (Δε). Temperature denaturation measurements were collected over the temperatures (20 °C–95 °C, in 5 °C increments) in the absence and presence of ligands. Samples were incubated at the initial 20 °C for 30 min after ligand or solvent addition prior to data acquisition. At each temperature step, reactions were incubated for 2 min prior to data collection (1 scan). A final scan was acquired post-temperature ramp after returning to 20 °C and incubation for 20 min before data acquisition. Data was analysed using CDApps to obtain difference spectra where all controls (buffers, ligands, etc.) had been subtracted. Change in CD (mdeg) at a specific wavelength was transferred to OriginPro® 9 and plotted against the corresponding temperature for fitting using Gibbs-Helmholtz equation derived from Boltzmann distribution, [65] sigmoidal two-state denaturation curve to a Boltzmann distribution and the expression modified to include parameters for fitting of thermal denaturation data for the calculation of the melting temperature (Tm).

[3] = cited from earlier work; for pKd: surface plasmon resonance and other studies, read-out: kd for vancomycin binding
From the text: Using model cell wall precursor peptides such as N-acetyl-D-Ala-D-Ala, binding studies in aqueous solution have established that for many glycopeptides, the formation of entropically favourable asymmetric, back-to-back homodimers of the antibiotic, [11], [12] is mediated by sugar-sugar recognition, [13].

[4] = molecular target: T1, VanSA; assay: near-UV CD ligand binding screen of VanSA; design: species or system Enterococcus faecium BM4147; conditions: 5-fold molar equivalent of ligand, qualitative
Description: Ligand-containing samples were performed by addition of 5-fold molar equivalent of ligand stocks in 10 mM Tris–HCl pH 8.0 (control incubated with equivalent volume of 10 mM Tris–HCl pH 8.0). All samples were incubated at 20 °C for 30 min prior to data collection. All data was analysed using CDApps where the mean residue weight of VanSA was taken to be 113. Unless otherwise stated, all spectra presented are difference spectra where all relevant background buffers, ligands etc. have been subtracted. Data acquired when the HT of the detector (PMT) was equal to or > 600 V were excluded from the analyses. Far-UV measurements (180–260 nm) were commonly collected using 0.5 mg/ml of VanSA with bandwidth of 1 nm and 1 s integration time. Data presented in molar extinction (Δε). […] Data was analysed using CDApps to obtain difference spectra where all controls (buffers, ligands, etc.) had been subtracted. […]
Near-UV measurements (260–350 nm) were collected using 1 mg/ml of protein using 10 mm pathlength cell, 2 nm bandwidth, 1 nm increments and 1 s integration. […] Change in CD (mdeg) a specific wavelength was monitored, the values transferred to OriginPro® and plotted against respective ligand concentration (M) and fitted with a hill1 binding or biphasic dose response function to determine the kd for binding.

[5] = molecular target: T1, VanSA; assay: fluorescence emission of VanSA Trp residues with antibiotics; format: binding, Enterococcus faecium BM4147; conditions: excitation 295 nm, equivalent ratio 1:7, 23 °C; n = 3; VanSA alone λmax 334 nm (blue shift)
Description: Fluorescence spectroscopy was carried out using a Chirascan-Plus CD Spectrometer (Applied Photophysics) using 1 cm pathlength cell (1 cm × 1 cm, 4 mm × 4 mm window) at 23 °C, 5 nm bandwidth and 600 V, 295 nm excitation wavelength to excite the VanSA Trp residues was applied to the sample and emission monitored between 300 and 500 nm in 1 nm increments. Samples incubated at 20 °C for 30 min prior to data collection.
Data analysis performed using CDApps to obtain values which have been buffer subtracted and dilution-corrected for all components (F values) (protein only, ligand only, protein-ligand). Fo values were determined by normalisation to the initial value for each condition, followed by calculation of F/Fo using OriginPro® 9. Standard deviation (n = 3) shown by error bars.

[6] = system: VanSsc; design: method as in PMID 20383152; conditions: result in words; cited from earlier work
From the text: The nature of the activating inducer for VanA-type resistance remains unknown. […] Other proposed ligands include the antibiotic-peptidoglycan precursor complex and the accumulating peptidoglycan precursors as a result of vancomycin mode of action, [54]. Here, we describe the use of in vitro approaches to further characterise the ligand-induced activities of VanSA. || Previous studies identified a 4-amino-acid motif (DQGW) from the predicted extracellular binding region of VanSsc (equivalent to the type B VanS receptor in soil actinomycetes) to which a modified vancomycin photoaffinity probe bound.

[7] = molecular target: T1, VanSA; assay: near-UV CD titration of VanSA with ligand (binding constant); design: species or system Enterococcus faecium BM4147
Description: as §1
Near-UV measurements (260–350 nm) were collected using 1 mg/ml of protein using 10 mm pathlength cell, 2 nm bandwidth, 1 nm increments and 1 s integration. Titration experiments were conducted as described for standard near-UV measurements, with the modification of measurements collected after the addition of incremental volumes of ligand stock as described previously, [70]. Change in CD (mdeg) a specific wavelength was monitored, the values transferred to OriginPro® and plotted against respective ligand concentration (M) and fitted with a hill1 binding or biphasic dose response function to determine the kd for binding.

T1 sequence (Q06240 whole entry): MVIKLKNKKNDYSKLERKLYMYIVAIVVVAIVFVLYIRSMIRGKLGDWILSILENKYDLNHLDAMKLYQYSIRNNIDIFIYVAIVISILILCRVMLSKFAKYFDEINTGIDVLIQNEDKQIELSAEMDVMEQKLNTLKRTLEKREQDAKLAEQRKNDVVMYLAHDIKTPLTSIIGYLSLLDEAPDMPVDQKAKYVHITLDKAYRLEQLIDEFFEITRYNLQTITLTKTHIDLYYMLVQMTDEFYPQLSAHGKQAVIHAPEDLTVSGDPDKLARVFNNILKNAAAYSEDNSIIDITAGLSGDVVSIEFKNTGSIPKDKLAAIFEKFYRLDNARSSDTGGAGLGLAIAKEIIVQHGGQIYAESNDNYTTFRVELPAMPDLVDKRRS

Molecule: CC(=O)N[C@@H]1[C@@H](O)[C@H](O)[C@@H](CO)O[C@H]1O [N-acetylglucosamine, N-Acetyl-D-glucosamine]
- activity of VanSA (autophosphorylation) [1]: decreases in activity

Molecule: CC(=O)N[C@H]1C(O)O[C@H](CO)[C@@H](O)[C@@H]1O[C@H](C)C(=O)O (some centres unmarked) [N-acetylmuramic acid, N-Acetylmuramic acid]
- Melting temperature (Tm) of VanSA in the presence of screened ligands [2]: 44 ± 0.63 °C
- activity of VanSA (autophosphorylation) [1]: decreases in activity

Molecule: CN[C@H](CC(C)C)C(=O)N[C@H]1C(=O)N[C@@H](CC(N)=O)C(=O)N[C@H]2C(=O)N[C@H]3C(=O)N[C@H](C(=O)N[C@H](C(=O)O)c4cc(O)cc(O)c4-c4cc3ccc4O)[C@H](O)c3ccc(c(Cl)c3)Oc3cc2cc(c3O[C@@H]2O[C@H](CO)[C@@H](O)[C@H](O)[C@H]2O[C@H]2C[C@](C)(N)[C@H](O)[C@H](C)O2)Oc2ccc(cc2Cl)[C@H]1O [vancomycin]
- thermal stability of VanSA ([2]; far-UV thermal denaturation, result in words): significant increase of the thermal stability
- Melting temperature (Tm) of VanSA in the presence of screened ligands [2]: 79 ± 4.04 °C
- pKd ([3]; ref 17): 5.88
- pKd ([3]; ref 18): 5.57
- pKd ([3]; ref 19): 5.47
- changes in local tertiary structure (tyrosine/tryptophan region) [4]: changes to the tyrosine/tryptophan region
- activity of VanSA (autophosphorylation) [1]: significant increases in the activity
- phosphorylation states of VanSA (activity profile) [1]: quicker, longer-lived phosphorylation states
- fluorescence emission λmax of VanSA upon addition of antibiotic [5]: 328 nm
- binding to VanS of actinomycetes [6]: shown to bind in type A equivalent systems of actinomycetes
- pKd [7]: 4.15
- binding mechanism ([7]; near-UV CD titration): one-step process of moderate affinity
- Hill coefficient ([7]; near-UV CD titration, Hill 1 function): 1.65 ± 0.84

Molecule: Ala-D-γ-Glu-Lys-D-Ala-D-Ala [peptidoglycan component]
- Melting temperature (Tm) of VanSA in the presence of screened ligands [2]: 51 ± 3.23 °C

Molecule: D-Ala-D-Ala
- Melting temperature (Tm) of VanSA in the presence of screened ligands [2]: 48 ± 4.07 °C

Molecule: teicoplanin
- Melting temperature (Tm) of VanSA in the presence of screened ligands [2]: 47 ± 5.08 °C
- potency compared with vancomycin ([3]; in vitro and in vivo, result in words): greater potency than vancomycin
- changes in local tertiary structure (tyrosine/tryptophan region) [4]: changes to the tyrosine/tryptophan region
- activity of VanSA (autophosphorylation) [1]: significant increases in the activity
- phosphorylation states of VanSA (activity profile) [1]: quicker, longer-lived phosphorylation states
- fluorescence emission λmax of VanSA upon addition of antibiotic [5]: 329 nm
- binding mechanism ([7]; near-UV CD titration): two-step mechanism
- Hill coefficient ([7]; near-UV CD titration, Bi Dose Response function, two-step, first value): 0.97 ± 0.77
- Hill coefficient ([7]; near-UV CD titration, Bi Dose Response function, two-step, second value): 0.977 ± 0.76
- pKd ([7]; near-UV CD titration, change in CD (mdeg) at 292 nm, BidoseResponse function, two-step mechanism, first value printed in picture, VanSA 1 mg/ml, n = 4, read-out: Binding constant (kd)): 3.77
- pKd ([7]; near-UV CD titration, change in CD (mdeg) at 292 nm, BidoseResponse function, two-step mechanism, second value printed in picture, VanSA 1 mg/ml, n = 4, read-out: Binding constant (kd)): 4.52
